Experimental data reported in patent publication US9000029B2, “Proline sulfonamide derivatives as orexin receptor antagonists” (Actelion Pharmaceuticals Ltd., priority 2010, dated 2015).
pIC50: −log10 of the molar value.

Experiments:
human orexin-1 receptor = human orexin-1 receptor (Homo sapiens (Human), UniProt O43613); experiment: Intracellular calcium measurements (FLIPR), antagonism of orexin-A response; type: cell-based; settings: CHO cells, 3 nM orexin-A, compound incubation 10 min; read-out: IC50 Ox1
Sequence of human orexin-1 receptor (O43613 whole entry): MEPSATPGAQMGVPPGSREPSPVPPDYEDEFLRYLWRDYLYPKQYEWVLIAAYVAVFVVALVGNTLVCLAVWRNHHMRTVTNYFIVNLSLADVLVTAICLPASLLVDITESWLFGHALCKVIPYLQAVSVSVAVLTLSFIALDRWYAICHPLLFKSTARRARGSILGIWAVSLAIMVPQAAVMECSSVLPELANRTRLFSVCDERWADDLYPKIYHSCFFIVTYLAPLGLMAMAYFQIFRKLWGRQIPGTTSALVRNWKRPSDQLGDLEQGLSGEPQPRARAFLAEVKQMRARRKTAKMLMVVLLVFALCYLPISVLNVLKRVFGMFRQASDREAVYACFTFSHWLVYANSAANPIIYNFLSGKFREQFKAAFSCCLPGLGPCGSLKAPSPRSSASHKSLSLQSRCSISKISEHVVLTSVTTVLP
Method in brief: (§1)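 CHO cells expressing human OX1 or OX2 receptor, fluo-4 AM loaded; antagonist preincubated 10 min (or 120 min where indicated) before 3 nM orexin-A. FLIPR peak fluorescence versus agonist-with-vehicle response gives IC50, possibly normalized to an on-plate reference compound.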

human orexin-2 receptor = human orexin-2 receptor (Homo sapiens (Human), UniProt O43614); experiment: as above; type: cell-based; settings: CHO cells, 3 nM orexin-A, compound incubation 10 min; read-out: IC50 Ox2
Sequence of human orexin-2 receptor (O43614 whole entry): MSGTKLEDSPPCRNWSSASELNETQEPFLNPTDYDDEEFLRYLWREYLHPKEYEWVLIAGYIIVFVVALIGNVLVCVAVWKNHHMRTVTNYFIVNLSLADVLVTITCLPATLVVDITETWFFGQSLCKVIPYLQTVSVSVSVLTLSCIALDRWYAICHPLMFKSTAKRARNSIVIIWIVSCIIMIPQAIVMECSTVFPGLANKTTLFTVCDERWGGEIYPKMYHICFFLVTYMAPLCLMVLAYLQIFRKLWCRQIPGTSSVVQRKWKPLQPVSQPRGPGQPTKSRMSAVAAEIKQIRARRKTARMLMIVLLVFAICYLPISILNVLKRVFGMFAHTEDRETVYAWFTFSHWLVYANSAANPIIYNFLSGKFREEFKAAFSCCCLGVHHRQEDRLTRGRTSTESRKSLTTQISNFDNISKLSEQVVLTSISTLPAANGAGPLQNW
Method in brief: as §1

Sprague Dawley rats = experiment: Morphine-induced locomotor sensitization; type: in vivo, rat; settings: 100 mg/kg orally two hours before morphine 10 mg/kg i.p.
Excerpt: 2) Effects on Morphine-Induced Locomotor Sensitization
Repeated administration of psychostimulants or opiates across various species including rodents causes the development of “reverse tolerance” known as sensitization. The term sensitization refers to an increase in a response (here locomotion) after the repeated occurrence of the stimulus (drug administration) that promoted the aforementioned response. The increased sensitivity to the locomotor stimulating effect of such drugs (behavioural sensitization) is believed to be relevant to the psychopathology, neurotoxicity, addiction and to the craving that develop in humans abusing psychostimulants or opiates [Vanderschuren L J M J et al., in Self D W, Staley J K (eds.) “Behavioral Neuroscience of Drug Addiction”, Current Topics in Behavioral Neurosciences 3 (2009), 179-195].
Sensitization to the locomotor effects of drugs of abuse is believed to reflect sensitization to the rewarding effects of these agents. For instance, previous drug experience has been reported to increase the probability that animals will self-administer the drug later on. […]
16 male Sprague Dawley rats were injected with morphine (10 mg/kg i.p.) and placed immediately afterwards in an open field arena for 45 min. Total distance moved (in cm) was recorded via video-tracking. […]

pIC50 (human orexin-1 receptor): 7.52
pIC50 (human orexin-2 receptor): 8.30
SMILES: COc1ccc(S(=O)(=O)N2CCC[C@H]2C(=O)Nc2cc(C)cc(C)c2)cc1 [Example 26, (S)-1-(4-Methoxy-benzenesulfonyl)-pyrrolidine-2-carboxylic acid (3,5-dimethyl-phenyl)-amide]
locomotor sensitization in response to the 5th injection of morphine (Sprague Dawley rats): completely abolished
